Results taken from patent US10689354B2, “Aminoazole derivative” (Teijin Pharma Limited, priority 2015, dated 2020).

target: T1, androgen receptor (AR-LBD) (Rattus norvegicus, UniProt P15207); assay: Evaluation of androgen receptor affinity (PolarScreen Androgen Receptor Competitor Assay Kit, Red; fluorescence polarization); settings: 22° C. for 5 hours, relative to binding rate of 1 μM DHT, read-out: AR affinity (pEC50) (converted)
T1 construct: 5 μL of 2×AR-LBD/Fluoromone AL Red Complex contained in the kit; purchased Invitrogen
T1 sequence (P15207 651-882 limits assumed): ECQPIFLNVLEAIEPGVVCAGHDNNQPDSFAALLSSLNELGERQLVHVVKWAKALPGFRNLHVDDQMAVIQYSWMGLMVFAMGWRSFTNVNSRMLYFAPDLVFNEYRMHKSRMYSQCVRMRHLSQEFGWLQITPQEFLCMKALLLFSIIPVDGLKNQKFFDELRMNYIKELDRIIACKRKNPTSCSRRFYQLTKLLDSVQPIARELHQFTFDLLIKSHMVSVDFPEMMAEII
Summary of the method: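 pEC50 values reflect tracer displacement from AR-LBD (Fluoromone AL Red complex) measured by fluorescence polarization after 5 h at 22° C, normalized to 1 μM DHT and fitted with a 4-parameter model.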

Row | SMILES | EC50
1 | Cc1sc(N(Cc2ccccc2)c2ccc(OCc3ccccc3)cc2)nc1C(=O)NS(C)(=O)=O [Compound 38, 2-(N-benzyl-4-benzyloxy-anilino)-5-methyl-N-methylsulfonyl-thiazole-4-carboxamide] | > 2000 nM
2 | Cc1sc(N(Cc2ccccc2)c2ccc(OCC(=O)N(C)C)cc2)nc1C(=O)NS(C)(=O)=O [Example 214, 2-[N-benzyl-4-[2-(dimethylamino)-2-oxo-ethoxy]anilino]-5-methyl-N-methylsulfonyl-thiazole-4-carboxamide] | > 2000 nM
3 | Cc1sc(N(CCC2CCOCC2)Cc2ccccc2)nc1C(=O)NS(C)(=O)=O [Example 300, 2-[benzyl(2-tetrahydropyran-4-ylethyl)amino]-5-methyl-N-methylsulfonyl-thiazole-4-carboxamide] | 398 nM
4 | Cc1sc(N(Cc2ccccc2)Cc2ccccc2C#N)nc1C(=O)NS(C)(=O)=O [Example 291, 2-[benzyl-[(2-cyanophenyl)methyl]amino]-5-methyl-N-methylsulfonyl-thiazole-4-carboxamide] | > 2000 nM
5 | Cc1sc(N(Cc2ccccc2)Cc2csc3cc(C#N)ccc23)nc1C(=O)NS(C)(=O)=O [Compound 675, 2-[benzyl-[(6-cyanobenzothiophen-3-yl)methyl]amino]-5-methyl-N-methylsulfonyl-thiazole-4-carboxamide] | > 2000 nM
6 | Cc1sc(N(CCCc2ccccc2)Cc2ccccc2)nc1C(=O)NS(C)(=O)=O [Example 297, 2-[benzyl(3-phenylpropyl)amino]-5-methyl-N-methylsulfonyl-thiazole-4-carboxamide] | 501 nM
7 | Cc1sc(N(C[Si](C)(C)c2ccccc2)c2ccc(C#N)cc2)nc1C(=O)NS(C)(=O)=O [Compound 477, 2-[4-cyano-N-[[dimethyl(phenyl)silyl]methyl]anilino]-5-methyl-N-methylsulfonyl-thiazole-4-carboxamide] | > 2000 nM
8 | Cc1sc(N(CCC(O)CO)Cc2ccccc2)nc1C(=O)NS(C)(=O)=O (centres unmarked) [Compound 712, 2-[benzyl(3,4-dihydroxybutyl)amino]-5-methyl-N-methylsulfonyl-thiazole-4-carboxamide] | > 2000 nM
9 | Cc1sc(N(Cc2ccccc2)Cc2csc3cc(C(F)(F)F)ccc23)nc1C(=O)NS(C)(=O)=O [Compound 676, 2-[benzyl-[[6-(trifluoromethyl)benzothiophen-3-yl]methyl]amino]-5-methyl-N-methylsulfonyl-thiazole-4-carboxamide] | > 2000 nM
10 | Cc1ccc(S(=O)(=O)n2cc(CCN(Cc3ccccc3)c3nc(C(=O)NS(C)(=O)=O)c(C)s3)c3ccccc32)cc1 [Example 318, 2-[benzyl-[2-[1-(p-tolylsulfonyl)indol-3-yl]ethyl]amino]-5-methyl-N-methylsulfonyl-thiazole-4-carboxamide] | > 2000 nM
11 | Cc1sc(N(Cc2ccccc2)c2ccc(C#N)cc2)nc1C(=O)NS(=O)(=O)c1ccccc1 [Compound 375, N-(benzenesulfonyl)-2-(N-benzyl-4-cyano-anilino)-5-methyl-thiazole-4-carboxamide] | > 2000 nM
12 | Cc1sc(N(Cc2ccccc2)c2ccc(C#N)cc2)nc1C(=O)NS(=O)(=O)CCN1CCOCC1 [Compound 429, 2-(N-benzyl-4-cyano-anilino)-5-methyl-N-(2-morpholinoethylsulfonyl)thiazole-4-carboxamide] | > 2000 nM
13 | Cc1sc(N(Cc2ccccc2)c2cccc(O)c2)nc1C(=O)NS(C)(=O)=O [Example 205, 2-(N-benzyl-3-hydroxy-anilino)-5-methyl-N-methylsulfonyl-thiazole-4-carboxamide] | > 2000 nM
14 | Cc1sc(N(CCc2cccc3ccccc23)Cc2ccccc2)nc1C(=O)NS(C)(=O)=O [Example 314, 2-[benzyl-[2-(1-naphthyl)ethyl]amino]-5-methyl-N-methylsulfonyl-thiazole-4-carboxamide] | > 2000 nM
15 | Cc1sc(N(C)Cc2ccccc2)nc1C(=O)NS(C)(=O)=O [Example 292, 2-[benzyl(methyl)amino]-5-methyl-N-methylsulfonyl-thiazole-4-carboxamide] | > 2000 nM
16 | Cc1sc(N(CCn2nccn2)Cc2ccccc2)nc1C(=O)NS(C)(=O)=O [Compound 679, 2-[benzyl-[2-(triazol-2-yl)ethyl]amino]-5-methyl-N-methylsulfonyl-thiazole-4-carboxamide] | > 2000 nM

The next lines start with the values.

Row | EC50 | SMILES
17 | > 2000 nM | Cc1sc(N(c2ccc(C#N)cc2)[C@H](CO)c2ccccc2)nc1C(=O)NS(C)(=O)=O [Compound 467, 2-(4-cyano-N-[(1S)-2-hydroxy-1-phenyl-ethyl]anilino)-5-methyl-N-methylsulfonyl-thiazole-4-carboxamide]
18 | > 2000 nM | Cc1sc(N(CCCC#N)c2ccc(C#N)cc2)nc1C(=O)NS(C)(=O)=O [Compound 360, 2-[4-cyano-N-(3-cyanopropyl)anilino]-5-methyl-N-methylsulfonyl-thiazole-4-carboxamide]
19 | > 2000 nM | Cc1sc(N(CC2CCCOC2)c2ccc(C#N)cc2)nc1C(=O)NS(C)(=O)=O (centres unmarked) [Compound 120, 2-[4-cyano-N-(tetrahydropyran-3-ylmethyl)anilino]-5-methyl-N-methylsulfonyl-thiazole-4-carboxamide]
20 | 63.1 nM | COc1ccc(CN(c2ccc(C#N)cc2)c2nc(C(=O)NS(C)(=O)=O)c(Br)s2)cc1 [Example 250, 5-bromo-2-[4-cyano-N-[(4-methoxyphenyl)methyl]anilino]-N-methylsulfonyl-thiazole-4-carboxamide]
21 | > 2000 nM | Cc1sc(N(Cc2ncccc2OCc2ccccc2)c2ccc(C#N)cc2)nc1C(=O)NS(C)(=O)=O [Compound 490, 2-[N-[(3-benzyloxy-2-pyridyl)methyl]-4-cyano-anilino]-5-methyl-N-methylsulfonyl-thiazole-4-carboxamide]
22 | 1000 nM | Cc1sc(N(Cc2cccc3cnccc23)c2ccc(C#N)cc2)nc1C(=O)NS(C)(=O)=O [Compound 402, 2-[4-cyano-N-(5-isoquinolylmethyl)anilino]-5-methyl-N-methylsulfonyl-thiazole-4-carboxamide]
23 | 794 nM | Cc1nc(CN(c2ccc(C#N)cc2)c2nc(C(=O)NS(C)(=O)=O)c(Cl)s2)cs1 [Example 278, 5-chloro-2-[4-cyano-N-[(2-methylthiazol-4-yl)methyl]anilino]-N-methylsulfonyl-thiazole-4-carboxamide]
24 | > 2000 nM | Cc1sc(N(CC2CC2)c2ccc(C#N)cc2)nc1C(=O)NS(C)(=O)=O [Compound 67, 2-[4-cyano-N-(cyclopropylmethyl)anilino]-5-methyl-N-methylsulfonyl-thiazole-4-carboxamide]
25 | > 2000 nM | Cc1sc(N(Cc2ccccc2)c2ccc(C#N)cc2)nc1C(=O)NS(=O)(=O)c1cn(C)cn1 [Compound 394, 2-(N-benzyl-4-cyano-anilino)-5-methyl-N-(1-methylimidazol-4-yl)sulfonyl-thiazole-4-carboxamide]
26 | 631 nM | Cc1sc(N(Cc2ccccc2C(F)F)c2ccc(C#N)cc2)nc1C(=O)NS(C)(=O)=O [Compound 93, 2-[4-cyano-N-[[2-(difluoromethyl)phenyl]methyl]anilino]-5-methyl-N-methylsulfonyl-thiazole-4-carboxamide]
27 | > 2000 nM | Cc1sc(N(Cc2ccccc2)c2ccc(CO)cc2)nc1C(=O)NS(C)(=O)=O [Example 226, 2-[N-benzyl-4-(hydroxymethyl)anilino]-5-methyl-N-methylsulfonyl-thiazole-4-carboxamide]
28 | 501 nM | Cc1sc(N(Cc2ccccc2)c2ccc(C#N)cn2)nc1C(=O)NS(C)(=O)=O [Compound 602, 2-[benzyl-(5-cyano-2-pyridyl)amino]-5-methyl-N-methylsulfonyl-thiazole-4-carboxamide]
29 | 1580 nM | Cc1sc(N(Cc2ccc3nc[nH]c3c2)c2ccc(C#N)cc2)nc1C(=O)NS(C)(=O)=O [Compound 389, 2-[N-(3H-benzimidazol-5-ylmethyl)-4-cyano-anilino]-5-methyl-N-methylsulfonyl-thiazole-4-carboxamide]
30 | > 2000 nM | Cc1sc(N(CC2CCCC(O)C2)c2ccc(C#N)cc2)nc1C(=O)NS(C)(=O)=O (centres unmarked) [Compound 427, 2-[4-cyano-N-[(3-hydroxycyclohexyl)methyl]anilino]-5-methyl-N-methylsulfonyl-thiazole-4-carboxamide]
31 | > 2000 nM | Cc1sc(N(CC2CCC(N(C)C)CC2)c2ccc(C#N)cc2)nc1C(=O)NS(C)(=O)=O (centres unmarked) [Compound 352, 2-[4-cyano-N-[[4-(dimethylamino)cyclohexyl]methyl]anilino]-5-methyl-N-methylsulfonyl-thiazole-4-carboxamide]
32 | > 2000 nM | Cc1sc(N(CC(=O)N(C)C2CCCCC2)c2ccc(C#N)cc2)nc1C(=O)NS(C)(=O)=O [Compound 424, 2-(4-cyano-N-[2-[cyclohexyl(methyl)amino]-2-oxo-ethyl]anilino)-5-methyl-N-methylsulfonyl-thiazole-4-carboxamide]
33 | 1260 nM | Cc1sc(N(Cc2ccccc2)c2ccncc2)nc1C(=O)NS(C)(=O)=O [Compound 422, 2-[benzyl(4-pyridyl)amino]-5-methyl-N-methylsulfonyl-thiazole-4-carboxamide]
34 | 631 nM | Cc1sc(N(Cc2ccc(OCCO)cc2)c2ccc(C#N)cc2)nc1C(=O)NS(C)(=O)=O [Compound 569, 2-[4-cyano-N-[[4-(2-hydroxyethoxy)phenyl]methyl]anilino]-5-methyl-N-methylsulfonyl-thiazole-4-carboxamide]
35 | > 2000 nM | Cc1sc(N(CC(=O)NC2CCCCC2)c2ccc(C#N)cc2)nc1C(=O)NS(C)(=O)=O [Compound 423, 2-(4-cyano-N-[2-(cyclohexylamino)-2-oxo-ethyl]anilino)-5-methyl-N-methylsulfonyl-thiazole-4-carboxamide]
